Laboratory results published in patent publication US20240317708A1, “INHIBITORS OF TRANSGLUTAMINASES” (ZEDIRA GMBH, priority 2021, published 2024).

Experiments:
[1] = biological target: T1, recombinant human transglutaminase 2 (Homo sapiens, UniProt P21980); test: Transglutaminase assay (dansylcadaverine incorporation into dimethylcasein, DCC-assay); assay type: biochemical; conditions: recombinant human TG2 10 nM, dansylcadaverine/dimethylcasein, 37° C.
T1 construct: purchased Zedira T022
T1 sequence (P21980 1-687): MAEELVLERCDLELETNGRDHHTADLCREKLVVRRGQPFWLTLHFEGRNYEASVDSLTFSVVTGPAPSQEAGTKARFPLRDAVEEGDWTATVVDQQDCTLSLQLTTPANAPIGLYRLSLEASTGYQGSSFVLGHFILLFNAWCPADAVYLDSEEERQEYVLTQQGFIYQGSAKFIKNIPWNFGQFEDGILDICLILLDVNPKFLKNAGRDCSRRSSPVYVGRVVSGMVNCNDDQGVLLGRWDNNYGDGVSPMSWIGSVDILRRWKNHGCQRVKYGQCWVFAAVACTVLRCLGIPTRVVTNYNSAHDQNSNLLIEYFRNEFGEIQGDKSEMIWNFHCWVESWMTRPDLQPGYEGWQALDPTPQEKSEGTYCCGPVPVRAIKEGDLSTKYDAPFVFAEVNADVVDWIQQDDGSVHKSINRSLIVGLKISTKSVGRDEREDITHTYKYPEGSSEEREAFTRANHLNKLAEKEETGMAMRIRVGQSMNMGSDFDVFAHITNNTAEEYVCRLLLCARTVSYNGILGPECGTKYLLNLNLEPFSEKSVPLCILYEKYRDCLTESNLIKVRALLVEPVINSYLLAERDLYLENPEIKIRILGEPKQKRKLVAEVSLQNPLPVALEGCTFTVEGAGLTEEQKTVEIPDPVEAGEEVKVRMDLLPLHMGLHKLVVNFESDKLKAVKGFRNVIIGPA
Experimental: For the determination of potency of inhibitors against tissue transglutaminase, the incorporation of dansylcadaverine into dimethylcasein (Zedira product T036, Lorand et al., Anal Biochem, 1971, 44:221-31) was measured using recombinant human transglutaminase 2 (Zedira Product T022).
The tissue transglutaminase is diluted in buffer (50 mM Tris-HCl, 7.5 mM CaCl2, 150 mM NaCl, pH=7.4). The final concentration of TG2 in the assay is 10 nM.
A 10 mM inhibitor stock solution is prepared in DMSO, and from this a serial 1:2-fold dilution series is prepared also in DMSO. Each of the initial dilutions is subsequently diluted 1:50-fold with buffer (50 mM Tris-HCl, 7.5 mM CaCl2, 150 mM NaCl, pH=7.4) to yield the final working dilutions containing 2% (v/v) DMSO.
15 μl of inhibitor working dilution are added per well of a 96 well microtiter plate. As control, 15 μl of a 2% (v/v) DMSO solution prepared using the buffer mentioned above are added per well.
Immediately before starting the assay, 600 μl transglutaminase working solution are added to 11.4 ml assay buffer (50 mM Tris-HCl, 10 mM CaCl2, 10 mM glutathione, 2.5% glycerol, 16.7 μM dansylcadaverine, 4 μM N,N-dimethylcasein, 200 mM NaCl, pH=8.0). 285 μl of this reaction mix are added per well containing the inhibitor.
Increase in fluorescence is measured using λex=330 nm and λem=500 nm at 37° C. for 30 min. A slope of the increase in fluorescence between 20 and 30 min is calculated for determination of the IC50 value (inhibitor concentration at which 50% of the initial activity is blocked).
Analysis of enzymatic activity is performed by calculation of the slope of an increase in fluorescence intensity. IC50 values are calculated by plotting the enzymatic activity (as percentage from control containing 2% DMSO instead of inhibitor) against the inhibitor concentration. IC50 is defined as the inhibitor concentration blocking 50% of initial enzyme activity.

[2] = Log D shake flask method (octanol / PBS pH 7.4, HPLC); assay type: physicochemical; conditions: octanol/phosphate-buffered saline (PBS); octanol / PBS pH 7.4, shake flask
Experimental: In order to classify the inventive compounds according to their lipophilicity, Log D values (distribution coefficient) were determined by means of the well-established shake flask method, measuring the partition of a compound between an octanol and phosphate-buffered saline (PBS, pH 7.4) by HPLC.

[3] = Caco-2 permeability assay (CacoReady kit); assay type: in vitro ADME; conditions: human
Experimental: Permeability coefficients (Papp values) were obtained from Caco-2 barrier studies predicting oral/intestinal bioavailability of the tested compounds. The assays were performed by using CacoReady™ ready-to-use kits from ReadyCell according to the manufacturers protocol.

SMILES	IC50 [1]	logD [2]	Papp [3]
COC(=O)/C=C/CC[C@H](NC(=O)C1CN2CCC1CC2)C(=O)Nc1cccn(CC(=O)NC2C3CC4CC(C3)CC2C4)c1=O (stereo partly drawn) [III-32, (S,E)-methyl 7-(1-(2-(2-adamantylamino)-2-oxoethyl)-2-oxo-1,2-dihydropyridin-3-ylamino)-7-oxo-6-(quinuclidine-3-carboxamido)hept-2-enoate]	25 to 250 nM	3 to 5	< 1 ×10⁻⁶ cm/s
COC(=O)/C=C/CC[C@H](NC(=O)c1cc(C(=O)OC)cc([N+](=O)[O-])c1)C(=O)Nc1cccn(CC(=O)NC2C3CC4CC(C3)CC2C4)c1=O (stereo partly drawn) [III-33, (S,E)-methyl 3-(1-(1-(2-(2-adamantylamino)-2-oxoethyl)-2-oxo-1,2-dihydropyridin-3-ylamino)-7-methoxy-1,7-dioxohept-5-en-2-ylcarbamoyl)-5-nitrobenzoate]	< 25 nM	3 to 5	< 1 ×10⁻⁶ cm/s
COC(=O)/C=C/CC[C@H](NC(=O)c1cncc([N+](=O)[O-])c1)C(=O)Nc1cccn(CC(=O)NC2C3CC4CC(C3)CC2C4)c1=O (stereo partly drawn) [III-34, (S,E)-methyl 7-(1-(2-(2-adamantylamino)-2-oxoethyl)-2-oxo-1,2-dihydropyridin-3-ylamino)-6-(5-nitronicotinamido)-7-oxohept-2-enoate]	< 25 nM	3 to 5	< 1 ×10⁻⁶ cm/s
COC(=O)/C=C/CC[C@H](NC(=O)c1cncc(C(=O)O)c1)C(=O)Nc1cccn(CC(=O)NC2C3CC4CC(C3)CC2C4)c1=O (stereo partly drawn) [III-35, (S,E)-5-(1-(1-(2-(2-adamantylamino)-2-oxoethyl)-2-oxo-1,2-dihydropyridin-3-ylamino)-7-methoxy-1,7-dioxohept-5-en-2-ylcarbamoyl)nicotinic acid]	< 25 nM	3 to 5	< 1 ×10⁻⁶ cm/s
COC(=O)/C=C/CC[C@H](NC(=O)c1cncc(C(=O)OC)c1)C(=O)Nc1cccn(CC(=O)NC2C3CC4CC(C3)CC2C4)c1=O (stereo partly drawn) [III-36, (S,E)-methyl 5-(1-(1-(2-(2-adamantylamino)-2-oxoethyl)-2-oxo-1,2-dihydropyridin-3-ylamino)-7-methoxy-1,7-dioxohept-5-en-2-ylcarbamoyl)nicotinate]	25 to 250 nM	3 to 5	< 1 ×10⁻⁶ cm/s
COC(=O)/C=C/CC[C@H](NC(=O)c1oc2ccccc2c1C)C(=O)Nc1cccn(CC(=O)N(C)C2C3CC4CC(C3)CC2C4)c1=O (stereo partly drawn) [III-37, (S,E)-methyl 7-(1-(2-(2-adamantyl(methyl)amino)-2-oxoethyl)-2-oxo-1,2-dihydropyridin-3-ylamino)-6-(3-methylbenzofuran-2-carboxamido)-7-oxohept-2-enoate]	25 to 250 nM	3 to 5	1 to 10 ×10⁻⁶ cm/s
COC(=O)/C=C/CC[C@H](NC(=O)c1oc2ccccc2c1C)C(=O)Nc1cccn(CC(=O)NC2C3CC4CC2CC(O)(C4)C3)c1=O (stereo partly drawn) [III-38, (S,E)-methyl 7-(1-(2-(5-hydroxyadamantan-2-amino)-2-oxoethyl)-2-oxo-1,2-dihydropyridin-3-ylamino)-6-(3-methylbenzofuran-2-carboxamido)-7-oxohept-2-enoate]	25 to 250 nM	1 to 3	< 1 ×10⁻⁶ cm/s

More lines, now with the values ahead:

IC50 [1]	logD [2]	Papp [3]	SMILES
< 25 nM	3 to 5	1 to 10 ×10⁻⁶ cm/s	COC(=O)/C=C/CC[C@H](NC(=O)c1oc2ccccc2c1C)C(=O)Nc1cccn(CC(=O)NC2C3CC4CC2CC(F)(C4)C3)c1=O (stereo partly drawn) [III-39, (S,E)-methyl 7-(1-(2-(5-fluoroadamantan-2-amino)-2-oxoethyl)-2-oxo-1,2-dihydropyridin-3-ylamino)-6-(3-methylbenzofuran-2-carboxamido)-7-oxohept-2-enoate]
< 25 nM	3 to 5	1 to 10 ×10⁻⁶ cm/s	COC(=O)/C=C/CC[C@H](NC(=O)c1oc2ccccc2c1C)C(=O)Nc1cccn(CC(=O)NC2C3CC4CC2CC(Cl)(C4)C3)c1=O (stereo partly drawn) [III-40, (S,E)-methyl 7-(1-(2-(5-chloroadamantan-2-amino)-2-oxoethyl)-2-oxo-1,2-dihydropyridin-3-ylamino)-6-(3-methylbenzofuran-2-carboxamido)-7-oxohept-2-enoate]
< 25 nM	3 to 5	1 to 10 ×10⁻⁶ cm/s	COC(=O)/C=C/CC[C@H](NC(=O)c1oc2ccccc2c1C)C(=O)Nc1cccn(CC(=O)NC2C3CC4CC2CC(Br)(C4)C3)c1=O (stereo partly drawn) [III-41, (S,E)-methyl 7-(1-(2-(5-bromoadamantan-2-amino)-2-oxoethyl)-2-oxo-1,2-dihydropyridin-3-ylamino)-6-(3-methylbenzofuran-2-carboxamido)-7-oxohept-2-enoate]
< 25 nM	3 to 5	1 to 10 ×10⁻⁶ cm/s	COC(=O)/C=C/CC[C@H](NC(=O)c1oc2ccccc2c1C)C(=O)Nc1cccn(CC(=O)NC2C3CC4CC2CC(C)(C4)C3)c1=O (stereo partly drawn) [III-42, (S,E)-methyl 7-(1-(2-(5-methyladamantan-2-amino)-2-oxoethyl)-2-oxo-1,2-dihydropyridin-3-ylamino)-6-(3-methylbenzofuran-2-carboxamido)-7-oxohept-2-enoate]
25 to 250 nM	3 to 5	< 1 ×10⁻⁶ cm/s	COC(=O)/C=C/CC[C@H](NC(=O)c1oc2ccccc2c1C)C(=O)Nc1cccn(CC(=O)NC2(C#N)C3CC4CC(C3)CC2C4)c1=O (stereo partly drawn) [III-43, (S,E)-methyl 7-(1-(2-(2-carbonitrileadamantane-2-amino)-2-oxoethyl)-2-oxo-1,2-dihydropyridin-3-ylamino)-6-(3-methylbenzofuran-2-carboxamido)-7-oxohept-2-enoate]
25 to 250 nM	3 to 5	< 1 ×10⁻⁶ cm/s	COC(=O)/C=C/CC[C@H](NC(=O)c1oc2ccccc2c1C)C(=O)Nc1cccn(CC(=O)NC2(C(=O)OC)C3CC4CC(C3)CC2C4)c1=O (stereo partly drawn) [III-44, (S,E)-methyl 7-(1-(2-(2-methyladamantane-2-carboxylate-2-amino)-2-oxoethyl)-2-oxo-1,2-dihydropyridin-3-ylamino)-6-(3-methylbenzofuran-2-carboxamido)-7-oxohept-2-enoate]
25 to 250 nM	3 to 5	1 to 10 ×10⁻⁶ cm/s	COC(=O)/C=C/CC[C@H](NC(=O)c1oc2ccccc2c1C)C(=O)Nc1cccn(CC(=O)NC23CC4CC(CC(C4)C2)C3)c1=O [III-45, (S,E)-methyl 7-(1-(2-(1-adamantylamino)-2-oxoethyl)-2-oxo-1,2-dihydropyridin-3-ylamino)-6-(3-methylbenzofuran-2-carboxamido)-7-oxohept-2-enoate]
< 25 nM	3 to 5	1 to 10 ×10⁻⁶ cm/s	COC(=O)/C=C/CC[C@H](NC(=O)c1oc2ccccc2c1C)C(=O)Nc1cccn(CC(=O)NC23CC4CC(C)(CC(C)(C4)C2)C3)c1=O [III-46, (S,E)-methyl 7-(1-(2-(3,5-dimethyladamantan-1-amino)-2-oxoethyl)-2-oxo-1,2-dihydropyridin-3-ylamino)-6-(3-methylbenzofuran-2-carboxamido)-7-oxohept-2-enoate]
250 to 1500 nM	3 to 5	1 to 10 ×10⁻⁶ cm/s	COC(=O)/C=C/CC[C@H](NC(=O)c1oc2ccccc2c1C)C(=O)Nc1cccn(CC(=O)N(C)C23CC4CC(CC(C4)C2)C3)c1=O [III-47, (S,E)-methyl 7-(1-(2-(1-adamantyl(methyl)amino)-2-oxoethyl)-2-oxo-1,2-dihydropyridin-3-ylamino)-6-(3-methylbenzofuran-2-carboxamido)-7-oxohept-2-enoate]
